Assay results as given in patent publication US5801178A, “Aniline derivative having polyunsaturated fatty acid residue and use thereof” (Nippon Shoji Kaish Ltd., priority 1995, dated 1998).

Legend:
[1] = system: ACAT derived from rat liver; test: Inhibitory activity against ACAT derived from rat liver microsome; format: biochemical; conditions: pH 7.4, 37° C., 30 minutes
Description: Inhibitory activity against ACAT derived from rat liver microsome
(§1) Using, as an enzyme source, the microsomal fractions prepared from rat liver in the manner described below under Preparation of Microsome, the inhibitory activity against ACAT in the microsome fractions was determined as in the following. The compound of the present invention was dissolved in dimethyl sulfoxide and used as a sample solution. [1-^14 C] […] Ethanol (1 ml) was added to stop the reaction, and n-hexane (4.5 ml) was added. The reaction mixture was centrifuged at 2,000 rpm for 2 minutes and the upper n-hexane layer was separated and recovered, whereby cholesterol oleate (reaction product) was extracted. n-Hexane was evaporated with a nitrogen gas and the residue was re-dissolved dissolved in n-hexane (50 μl), which was used as a sample for thin-layer chromatography. […] After developing, the spot of cholesterol oleate was colored with iodine. The spot was cut out and dissolved in a xylene scintillator (Aquasol-2, Daiichi Pure Chemicals Co., Ltd.). The amount of cholesterol oleate was determined using a liquid scintillation counter.
The liver was removed from a fasted rat and thoroughly perfused with 0.25M sucrose solution. The liver was weighed, minced with scissors or razor and placed in a Teflon homogenizer. The liver was homogenized with 9 volumes [9 ml per g (wet weight) of liver] of 0.25M sucrose solution or 50 mM Tris-HCl buffer (pH 7.5) containing 0.25M sucrose and 5 mM MgCl2. The homogenate was centrifuged at 8,000-10,000 g for 10-15 minutes. The obtained supernatant was centrifuged at 105,000 g for 60-90 minutes. The sediment obtained from this centrifugation was suspended in 150 mM potassium phosphate buffer (pH 7.4) to give a microsomal fraction.

[2] = target: T1, ACAT derived from human macrophage (Homo sapiens, UniProt P35610); test: Inhibitory activity against ACAT derived from human macrophage (microsomes of TPA-differentiated U937 cells); format: biochemical; conditions: for IC50: human macrophage (U937/TPA) microsome, pH 7.4, 37° C., 30 minutes; for selectivity (times greater, human macrophage ACAT vs rat liver ACAT): linoleoylamide derivatives; for Selectivity: Table 1, rat liver ACAT IC50 / human macrophage ACAT IC50
T1 construct: Using, as an enzyme source, microsomal fractions prepared in the manner described below under Preparation of Microsome from U937 cells; endogenous in cells; host or cells: U937 cells differentiated with TPA, microsomal fraction
T1 sequence (P35610 1-550): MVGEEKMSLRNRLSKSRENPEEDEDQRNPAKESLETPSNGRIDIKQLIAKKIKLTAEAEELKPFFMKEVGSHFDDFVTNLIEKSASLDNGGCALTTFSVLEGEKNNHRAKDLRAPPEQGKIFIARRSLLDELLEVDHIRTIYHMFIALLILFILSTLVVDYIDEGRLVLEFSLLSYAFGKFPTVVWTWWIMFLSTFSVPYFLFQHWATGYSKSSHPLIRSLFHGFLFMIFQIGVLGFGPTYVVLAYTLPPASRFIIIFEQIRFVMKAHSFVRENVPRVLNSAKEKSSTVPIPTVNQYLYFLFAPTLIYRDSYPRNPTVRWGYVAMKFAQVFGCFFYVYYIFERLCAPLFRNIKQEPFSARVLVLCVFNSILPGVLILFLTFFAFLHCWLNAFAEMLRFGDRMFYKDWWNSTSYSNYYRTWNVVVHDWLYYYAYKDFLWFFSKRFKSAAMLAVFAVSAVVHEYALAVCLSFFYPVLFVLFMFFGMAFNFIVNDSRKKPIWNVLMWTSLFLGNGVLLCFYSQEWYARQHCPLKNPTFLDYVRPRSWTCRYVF
Description: Inhibitory activity against ACAT derived from human macrophage
as §1, with “source,” for “source, the”, “prepared” for “prepared from rat liver”, “Microsome from U937 cells [human monocyte-derived cells known to differentiate into macrophages by the addition of TPA (12-O-tetradecanoylphorbol 13-acetate)] differentiated with TPA,” for “Microsome,”, “re-dissolved” for “re-dissolved dissolved”, “with” for “using”
The cells thus scraped and the culture solution were centrifuged at 3,000 rpm for 5 minutes, and the cell fractions obtained as precipitate were once freezed at -70° C. and preserved. The cells preserved at -70° C. were thawed and homogenized at 4° C. in a Teflon homogenizer. The homogenate was centrifuged at 12,000 g for 15 minutes. The precipitate fractions containing nuclea and mitochondria were removed and the obtained supernatant was further centrifuged at 100,000 g for 60 minutes. The supernatant was discarded, and the obtained precipitate fractions were suspended in 150 mM potassium phosphate buffer (pH 7.4) and used as a microsomal fraction.

[3] = Reduction of cholesterol in blood of cholesterol-loaded rats; format: in vivo, Male slc:SD (SPF) rats; conditions: serum total cholesterol; 90 mg/kg/day orally, five days; average of 8 rats; control taken as 100%
Description: Reduction of cholesterol in blood of rats
Male slc:SD (SPF) rats (4 weeks of age weighing 70-90 g, Japan SLC Inc.) were randomly divided into 8 per group and bred for 3 days on a normal diet (solid diet for test animals, MF, manufactured by Oriental Yeast CO., LTD.). Then, the aforementioned diet supplemented with 5% cholesterol, 10% olive oil and 0.5% cholic acid was freely fed for 10 days. During the last five days, the test compound (Compounds 3-6, 8, 11 and 12) suspended in 0.5% aqueous methylcellulose solution was forcibly administered orally once a day in a dose of 10 ml/kg which contains 90 mg/kg/day of the test compound (total dose of the test compound being 450 mg/kg). The rats were fasted for 16 hours after the final administration and etherized. The blood was taken from the abdominal aorta, and serum was separated by centrifugation to determine the total cholesterol content in the serum. The control group was administered with 0.5% aqueous methylcellulose solution instead of the test compound suspended in 0.5% aqueous methylcellulose solution.
* is an average of 8 rats per group based on the cholesterol content in
blood of control which was taken as 100%.

Structure (SMILES)	IC50 [1] [µM]	IC50 [2] [µM]	selectivity (times greater, human macrophage ACAT vs rat liver ACAT) [2]	Selectivity [2]	ACAT inhibitory activity (in words) ([2]; human macrophage ACAT)	Reduction of cholesterol in cholesterol-loaded rats, %* [3] [%]
CCC=CCC=CCC=CCC=CCC=CCCCC(=O)Nc1c(C)cccc1C [Compound 7, N-(2,6-dimethylphenyl)-5,8,11,14,17-eicosapentaenamide]	4.25	0.06	–	70.8	–	–
CCC=CCC=CCC=CCC=CCC=CCC=CCCC(=O)Nc1c(C(C)C)cccc1C(C)C [Compound 12, N-(2,6-diisopropylphenyl)-4,7,10,13,16,19-docosahexaenamide]	52.7	–	–	–	–	64
CCC=CCC=CCC=CCC=CCC=CCCCC(=O)Nc1c(OC)cc(OC)cc1OC [Compound 1, N-(2,4,6-trimethoxyphenyl)-5,8,11,14,17-eicosapentaenamide]	13.4	0.27	–	49.6	–	–
CCC=CCC=CCC=CCC=CCC=CCCCC(=O)Nc1c(CC)cccc1CC [Compound 9, N-(2,6-diethylphenyl)-5,8,11,14,17-eicosapentaenamide]	1.08	0.018	–	60	–	–
CCC=CCC=CCC=CCC=CCC=CCCCC(=O)N1CCN(C(=O)Nc2c(C(C)C)cccc2C(C)C)CC1 [Compound 15, N-(5,8,11,14,17-eicosapentaenoyl)-N'-(2,6-diisopropylanilinocarbonyl)piperazine]	> 500	1.08	–	> 463	–	–
CCC=CCC=CCC=CCC=CCC=CCCCC(=O)Nc1ccc(CNC(=O)Nc2c(C(C)C)cccc2C(C)C)cc1 [Compound 19, N-{4-(5,8,11,14,17-eicosapentaenoylamino)phenylmethyl}-N'-(2,6-diisopropylphenyl)urea]	> 500	0.15	–	> 3333	–	–
CCC=CCC=CCC=CCC=CCC=CCCCC(=O)NCc1ccc(NC(=O)Nc2c(C(C)C)cccc2C(C)C)cc1 [Compound 21, N-{4-(5,8,11,14,17-eicosapentaenoylaminomethyl)phenyl}-N'-(2,6-diisopropylphenyl)urea]	> 500	6.64	–	>75.3	–	–
CCC=CCC=CCC=CCC=CCC=CCC=CCCC(=O)NC1CCCCC1NC(=O)Nc1c(C(C)C)cccc1C(C)C (centres unmarked) [Compound 18, N-(4,7,10,13,16,19-docosahexaenoyl)-N'-(2,6-diisopropylanilinocarbonyl)-1,2-diaminocyclohexane]	> 500	2.63	–	> 190	–	–
CCC=CCC=CCC=CCC=CCC=CCC=CCCC(=O)NCCNC(=O)Nc1c(C(C)C)cccc1C(C)C [Compound 14, N-(4,7,10,13,16,19-docosahexaenoyl)-N'-(2,6-diisopropylanilinocarbonyl)ethylenediamine]	> 500	4.52	–	> 111	–	–

The next lines start with results.

IC50 [1] [µM]	IC50 [2] [µM]	selectivity (times greater, human macrophage ACAT vs rat liver ACAT) [2]	Selectivity [2]	ACAT inhibitory activity (in words) ([2]; human macrophage ACAT)	Structure (SMILES)	Reduction of cholesterol in cholesterol-loaded rats, %* [3] [%]
0.14	0.07	about twice	–	–	CCCCCC=CCC=CCCCCCCCC(=O)Nc1c(C)cccc1C [reference compound]	–
0.87	0.67	scarce selectivity	–	–	CCCCC/C=C\C/C=C\CCCCCCCC(=O)Nc1c(OC)cc(OC)cc1OC [reference compound]	–
> 500	17.9	–	>27.9	–	CCC=CCC=CCC=CCC=CCC=CCC=CCCC(=O)NCc1ccc(NC(=O)Nc2c(C(C)C)cccc2C(C)C)cc1 [Compound 22, N-{4-(4,7,10,13,16,19-docosahexaenoylaminomethyl)phenyl}-N'-(2,6-diisopropylphenyl)urea]	–
≥ 500	4.61	–	–	low activity	CCCCC/C=C\C/C=C\CCCCCCCC(=O)N1CCN(C(=O)Nc2c(C(C)C)cccc2C(C)C)CC1 [reference compound]	–
> 500	0.67	–	> 746	–	CCC=CCC=CCC=CCC=CCC=CCCCC(=O)NCCNC(=O)Nc1c(C(C)C)cccc1C(C)C [Compound 13, N-(5,8,11,14,17-eicosapentaenoyl)-N'-(2,6-diisopropylanilinocarbonyl)ethylenediamine]	–
20.3	0.5	–	40.6	–	CCC=CCC=CCC=CCC=CCC=CCC=CCCC(=O)Nc1c(OC)cc(OC)cc1OC [Compound 2, N-(2,4,6-trimethoxyphenyl)-4,7,10,13,16,19-docosahexaenamide]	–
> 500	1.86	–	> 269	–	CCC=CCC=CCC=CCC=CCC=CCCCC(=O)NC1CCCCC1NC(=O)Nc1c(C(C)C)cccc1C(C)C (centres unmarked) [Compound 17, N-(5,8,11,14,17-eocosapentaenoyl)-N'-(2,6-diisopropylanilinocarbonyl)-1,2-diaminocyclohexane]	–
11.5	0.029	–	395	–	CCC=CCC=CCC=CCC=CCC=CCC=CCCC(=O)Nc1c(CC)cccc1CC [Compound 10, N-(2,6-diethylphenyl)-4,7,10,13,16,19-docosahexaenamide]	–
20.2	1.1	–	18.4	–	CCC=CCC=CCC=CCC=CCC=CCC=CCCC(=O)Nc1ccc(CNC(=O)Nc2c(C(C)C)cccc2C(C)C)cc1 [Compound 20, N-{4-(4,7,10,13,16,19-docosahexaenoylamino)phenylmethyl}-N'-(2,6-diisopropylphenyl)urea]	–
0.09	0.006	about fifteen times	–	–	CCCCC/C=C\C/C=C\CCCCCCCC(=O)Nc1c(C(C)C)cccc1C(C)C [reference compound]	–
> 500	0.69	–	> 725	–	CCC=CCC=CCC=CCC=CCC=CCC=CCCC(=O)N1CCN(C(=O)Nc2c(C(C)C)cccc2C(C)C)CC1 [Compound 16, N-(4,7,10,13,16,19-docosahexaenoyl)-N'-(2,6-diisopropylanilinocarbonyl)piperazine]	–
0.1	0.02	about five times	–	–	CCCCC/C=C\C/C=C\CCCCCCCC(=O)Nc1c(CC)cccc1CC [reference compound]	–
